Measurements taken from publication PMC10179972, “New Hybrid Tetrahydropyrrolo[3,2,1-ij]quinolin-1-ylidene-2-thioxothiazolidin-4-ones as New Inhibitors of Factor Xa and Factor XIa: Design, Synthesis, and In Silico and Experimental Evaluation” (Molecules, 2023).

Tests used:
factor Xa = target: T1, factor Xa (Homo sapiens, UniProt P00742); test: Inhibition of factor Xa, kinetics of hydrolysis of chromogenic substrate S2765; type: biochemical; conditions: for inhibition at 30 µM: 30 μM compound, factor Xa 2.5 nmol/L, S2765 200 μmol/L, pH 8.0, read-out: Percent Inhibition at 30 μM, Xa; for IC50: substrate S2765, buffer solution
T1 construct: followed by the addition of factor Xa (final concentration, 2.5 nmol·L^–1)
T1 sequence (P00742 235-488 limits assumed): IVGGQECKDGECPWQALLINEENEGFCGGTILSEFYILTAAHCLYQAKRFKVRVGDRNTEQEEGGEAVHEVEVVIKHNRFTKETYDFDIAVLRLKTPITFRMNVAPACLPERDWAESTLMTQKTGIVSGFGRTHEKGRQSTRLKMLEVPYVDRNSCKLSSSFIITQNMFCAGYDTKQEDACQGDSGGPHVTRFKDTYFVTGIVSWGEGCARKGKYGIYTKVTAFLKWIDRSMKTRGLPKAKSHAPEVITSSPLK
T1 sequence (P00742 41-179 partner limits assumed): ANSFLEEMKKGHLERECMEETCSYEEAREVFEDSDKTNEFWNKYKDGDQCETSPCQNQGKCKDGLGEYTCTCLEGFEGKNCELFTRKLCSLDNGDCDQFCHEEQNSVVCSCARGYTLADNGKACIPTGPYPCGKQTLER
Method: We measured the kinetics of the hydrolysis of the specific substrates S2765 or S2366 by factors Xa and XIa, respectively, in the buffer solution and in the presence of various concentrations of compounds.
(§1) A specific low-molecular-weight chromogenic substrate, S2765 (Z-D-Arg-Gly-Arg-pNA·2HCl), was used in the case of factor Xa, while the substrate S2366 (pyroGlu-Pro-ArgpNA·HCl) (both substrates from Chromogenix, USA) was used for factor XIa.
A buffer containing 140 mM NaCl, 20 mM HEPES, and 0.1% PEG 6000 (pH 8.0) was placed in the wells of a 96-well plate, followed by the addition of factor Xa (final concentration, 2.5 nmol·L^–1) or XIa (final concentration 0.8 nmol·L^–1), the substrate S2765 (final concentration, 200 μmol·L^–1) or S2366 (final concentration, 200 μmol·L^–1), and a solution of the test compound in DMSO (final concentration, 30 μmol·L^–1; the DMSO content in the well was no more than 2%). […] The initial rate of substrate degradation was determined from the initial slope of the 4-nitroaniline-formation curve. The rate of substrate degradation by the enzyme in the presence of the inhibitor was expressed as a percentage relative to the rate of substrate degradation in the absence of the inhibitor. The data obtained were processed using GraphPad Prism and OriginPro 8 software.

factor XIa = factor XIa (Homo sapiens, UniProt P03951); test: Inhibition of factor XIa, kinetics of hydrolysis of chromogenic substrate S2366; type: biochemical; conditions: for inhibition at 30 µM: 30 μM compound, factor XIa 0.8 nmol/L, S2366 200 μmol/L, pH 8.0, read-out: Percent Inhibition at 30 μM, XIa; for IC50: substrate S2366, buffer solution
Sequence of factor XIa (P03951 388-625 limits assumed): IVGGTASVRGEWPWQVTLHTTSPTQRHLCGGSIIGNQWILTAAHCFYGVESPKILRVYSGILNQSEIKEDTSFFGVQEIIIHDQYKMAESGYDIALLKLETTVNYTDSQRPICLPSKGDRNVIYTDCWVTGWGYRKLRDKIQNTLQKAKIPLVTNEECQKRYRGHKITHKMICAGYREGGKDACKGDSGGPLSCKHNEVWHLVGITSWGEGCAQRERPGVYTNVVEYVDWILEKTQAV
Sequence of factor XIa (P03951 19-387 partner limits assumed): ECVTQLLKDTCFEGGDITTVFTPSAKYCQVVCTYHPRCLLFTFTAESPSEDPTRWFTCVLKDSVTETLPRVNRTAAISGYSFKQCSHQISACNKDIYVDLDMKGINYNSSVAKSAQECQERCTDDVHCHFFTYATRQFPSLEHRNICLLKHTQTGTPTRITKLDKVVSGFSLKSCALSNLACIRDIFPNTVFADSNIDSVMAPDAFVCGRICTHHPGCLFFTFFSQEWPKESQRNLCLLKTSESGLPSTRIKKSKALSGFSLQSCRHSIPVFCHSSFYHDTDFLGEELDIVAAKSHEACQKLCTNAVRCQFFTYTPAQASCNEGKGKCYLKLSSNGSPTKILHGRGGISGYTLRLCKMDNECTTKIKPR
Method: Compounds 12, 14 and 16 were evaluated for their anticoagulant activity against factors Xa and Xia, and the results are presented in Table 1. For the best Xa and XIa inhibitors, additional measurements were performed to determine the IC50 values. We measured the kinetics of the hydrolysis of the specific substrates S2765 or S2366 by factors Xa and XIa, respectively, in the buffer solution and in the presence of various concentrations of compounds.
as §1
A buffer containing 140 mM NaCl, 20 mM HEPES, and 0.1% PEG 6000 (pH 8.0) was placed in the wells of a 96-well plate, followed by the addition of factor Xa (final concentration, 2.5 nmol·L^–1) or XIa (final concentration 0.8 nmol·L^–1), the substrate S2765 (final concentration, 200 μmol·L^–1) or S2366 (final concentration, 200 μmol·L^–1), and a solution of the test compound in DMSO (final concentration, 30 μmol·L^–1; the DMSO content in the well was no more than 2%). The kinetics of the formation of p-nitroaniline were measured using a THERMOmax Microplate Reader (Molecular Devices Corporation, USA) using the absorption of light with a wavelength of 405 nm. The initial rate of substrate degradation was determined from the initial slope of the 4-nitroaniline-formation curve. The rate of substrate degradation by the enzyme in the presence of the inhibitor was expressed as a percentage relative to the rate of substrate degradation in the absence of the inhibitor. The data obtained were processed using GraphPad Prism and OriginPro 8 software.

inhibition at 30 µM (factor Xa) [%] | IC50 (factor Xa) [µM] | inhibition at 30 µM (factor XIa) [%] | IC50 (factor XIa) [µM] | Structure (SMILES)
63 | 2.35 ± 0.22 | 98 | 3.79 ± 0.03 | COc1ccccc1C(=O)Oc1cc2c3c(c1)C(C)CC(C)(C)N3C(=O)/C2=C1\SC(=S)NC1=O (stereo not drawn) [12d, (Z)-4,4,6-Trimethyl-2-oxo-1-(4-oxo-2-thioxothiazolidin-5-ylidene)-1,2,5,6-tetrahydro-4H-pyrrolo[3,2,1-ij]quinolin-8-yl 2-methoxybenzoate]
94 | 9.41 ± 0.35 | 22 | – | CC1CC(C)(C)N2C(=O)/C(=C3\SC(=S)NC3=O)c3cccc1c32 (stereo not drawn) [12a, (Z)-2-Thioxo-5-(4,4,6-trimethyl-2-oxo-5,6-dihydro-4H-pyrrolo[3,2,1-ij]quinolin-1(2H)-ylidene)thiazolidin-4-one]
58 | – | 72 | – | CC1CC(C)(C)N2C(=O)/C(=C3\SC(=S)NC3=O)c3cc(OC(=O)c4ccccc4)cc1c32 (stereo not drawn) [12c, (Z)-4,4,6-Trimethyl-2-oxo-1-(4-oxo-2-thioxothiazolidin-5-ylidene)-1,2,5,6-tetrahydro-4H-pyrrolo[3,2,1-ij]quinolin-8-yl benzoate]
67 | 3.03 ± 0.18 | 77 | 12.2 ± 0.5 | CC1CC2(CCCC2)N2C(=O)/C(=C3\SC(=S)NC3=O)c3cc(F)cc1c32 (stereo not drawn) [12p, (Z)-5-(8′-Fluoro-6′-methyl-2′-oxo-5′,6′-dihydrospiro[cyclopentane-1,4′-pyrrolo[3,2,1-ij]quinolin]-1′(2′H)-ylidene)-2-thioxothiazolidin-4-one]
49 | – | 17 | – | C#CCN1C(=O)/C(=C2/C(=O)N3c4c2cc(F)cc4C(C)(c2ccc(Cl)cc2)CC3(C)C)SC1=S (stereo not drawn) [14b, (Z)-5-(6-(4-Chlorophenyl)-8-fluoro-4,4,6-trimethyl-2-oxo-5,6-dihydro-4H-pyrrolo[3,2,1-ij]quinolin-1(2H)-ylidene)-3-(prop-2-yn-1-yl)-2-thioxothiazolidin-4-one]
45 | – | 57 | – | CC1(c2ccccc2)CC(C)(C)N2C(=O)/C(=C3\NC(=S)NC3=O)c3cccc1c32 (stereo not drawn) [16c, (Z)-4,4,6-Trimethyl-1-(5-oxo-2-thioxoimidazolidin-4-ylidene)-6-phenyl-5,6-dihydro-4H-pyrrolo[3,2,1-ij]quinolin-2(1H)-one]
49 | – | 94 | 3.74 ± 0.33 | COc1cc(C(=O)Oc2cc3c4c(c2)C(C)CC(C)(C)N4C(=O)/C3=C2\SC(=S)NC2=O)cc(OC)c1OC (stereo not drawn) [12e, (Z)-4,4,6-Trimethyl-2-oxo-1-(4-oxo-2-thioxothiazolidin-5-ylidene)-1,2,5,6-tetrahydro-4H-pyrrolo[3,2,1-ij]quinolin-8-yl 3,4,5-trimethoxybenzoate]
47 | – | 91 | 4.32 ± 0.06 | CC1CC2(CCCCCC2)N2C(=O)/C(=C3\SC(=S)NC3=O)c3cc(F)cc1c32 (stereo not drawn) [12q, (Z)-5-(8′-Fluoro-6′-methyl-2′-oxo-5′,6′-dihydrospiro[cycloheptane-1,4′-pyrrolo[3,2,1-ij]quinolin]-1′(2′H)-ylidene)-2-thioxothiazolidin-4-one]
59 | – | 86 | – | Cc1cc2c3c(c1)C(C)(c1ccc(Cl)cc1)CC(C)(C)N3C(=O)/C2=C1\NC(=S)NC1=O (stereo not drawn) [16e, (Z)-6-(4-Chlorophenyl)-4,4,6,8-tetramethyl-1-(5-oxo-2-thioxoimidazolidin-4-ylidene)-5,6-dihydro-4H-pyrrolo[3,2,1-ij]quinolin-2(1H)-one]
18 | – | 0 | – | CCN1C(=O)/C(=C2/C(=O)N3c4c2cc(F)cc4C(C)(c2ccc(Cl)cc2)CC3(C)C)SC1=S (stereo not drawn) [12m, (Z)-5-(6-(4-Chlorophenyl)-8-fluoro-4,4,6-trimethyl-2-oxo-5,6-dihydro-4H-pyrrolo[3,2,1-ij]quinolin-1(2H)-ylidene)-3-ethyl-2-thioxothiazolidin-4-one]
